# Test results taken from patent US8501782B2, “Piperidinyl derivatives as modulators of chemokine receptor activity” (Bristol-Myers Squibb Company, priority 2007, dated 2013).
# Biological target: T1, CCR1 (Homo sapiens, UniProt P32246)
# T1 construct: THP-1 monocytic leukemia cells are combined with 100 μg of LS WGA PS beads; endogenous in cells; host or cells: THP-1 human monocytic leukemia cells
# T1 sequence (P32246 1-355): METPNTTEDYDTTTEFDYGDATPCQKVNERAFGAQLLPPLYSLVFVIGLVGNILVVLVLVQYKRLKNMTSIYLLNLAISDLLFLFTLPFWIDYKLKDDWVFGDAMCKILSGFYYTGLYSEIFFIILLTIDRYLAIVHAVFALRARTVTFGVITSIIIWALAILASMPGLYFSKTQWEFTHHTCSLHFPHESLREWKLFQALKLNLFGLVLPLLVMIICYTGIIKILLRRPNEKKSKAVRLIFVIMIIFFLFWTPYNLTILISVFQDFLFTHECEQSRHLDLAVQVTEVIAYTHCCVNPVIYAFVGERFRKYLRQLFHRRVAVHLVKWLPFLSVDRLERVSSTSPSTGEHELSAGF
# Experiment: CCR1 ligand binding scintillation proximity assay (SPA): antagonism of MIP-1α binding to human THP-1 cells
# Details: THP-1 monocytic leukemia cells, 0.1 nM [125I]-MIP-1α, 12 h at room temperature
# Description: Antagonism of MIP-1α Binding to Human THP-1 Cells
# CCR1 ligand binding scintillation proximity assay (SPA) description:
# For radioligand competition studies, a final concentration of 1×10^5 THP-1 monocytic leukemia cells are combined with 100 μg of LS WGA PS beads (Amersham, Cat.#: RPNQ 0260) in 40 μl of assay buffer (RPMI 1640 without phenol red, 50 mM HEPES, 5 mM MgCl2, 1 mM CaCl2, 0.1% BSA). The THP-1 cell/bead mixture is added to each well of a 384-well assay plate (PerkinElmer, Cat. #:6007899) containing test compound in 3-fold serial dilution, with final concentrations ranging from 8 μM to […]. A final concentration of 0.1 nM [^125I]-MIP-1α (PerkinElmer, Cat. #NEX298) in 20 μl assay buffer is added to the reaction. Sealed assay plates are incubated at room temperature for 12 h then analyzed by LEADseeker™.
# The competition data of the test compound over a range of concentrations is plotted as percentage inhibition of radioligand specific bound in the absence of test compound (percent of total signal). After correcting for non-specific binding, IC50 values are determined. The IC50 value is defined as the concentration of test compound needed to reduce [^125I]-MIP-1α specific binding by 50% and is calculated using the four parameter logistic equation to fit the normalized data. The Ki values are determined by application of the Cheng-Prusoff equation to the IC50 values, where Ki=IC50/(1+ligand concentration/Kd) The Kd of [^125I]-MIP-1α in THP-1 cells is 0.1 nM. Each experiment is run in duplicate.
row,SMILES,IC50 [nM]
1,"CC(NC(=O)c1ccccc1)C(C)C(=O)N1CC[C@](O)(c2ccc(Cl)cc2)C(C)(C)C1 (single isomer, unassigned) [Example 72a]",1190
2,"CC(=O)N[C@@H]1CC[C@@H](C(=O)N[C@H](C)CC(=O)N2CC[C@](O)(c3ccc(Cl)cc3)C(C)(C)C2)C1 [Example 11, (1R,3R)-3-Acetamido-N—((R)-4-((S)-4-(4-chlorophenyl)-4-hydroxy-3,3-dimethylpiperidin-1-yl)-4-oxobutan-2-yl)cyclopentanecarboxamide]",43.9
3,"CC1(C)CN(C(=O)CC2(NC(=O)c3ccccc3)CCOCC2)CC[C@]1(O)c1ccc(Cl)cc1 [Example 15, (S)—N-(4-(2-(4-(4-Chlorophenyl)-4-hydroxy-3,3-dimethylpiperidin-1-yl)-2-oxoethyl)tetrahydro-2H-pyran-4-yl)benzamide]",1180
4,CC(CNC(=O)C1CCCC1)C(=O)N1CC[C@](O)(c2ccc(Cl)cc2)C(C)(C)C1 (stereo partly drawn) [Example 21],42
5,C[C@H](CC(=O)N1CC[C@](O)(c2ccc(Cl)cc2)C(C)(C)C1)NC(=O)[C@@H]1CC[C@@H](NC(=O)OC(C)(C)C)C1 [Example 28],46.7
6,CC(C)(CC(=O)N1CCC(O)(c2ccc(C#N)cc2)C(C)(C)C1)NC(=O)c1ccccc1 (stereo not drawn) [Example 60],45.3
7,CCOC(=O)c1cc(C2(O)CCN(C(=O)CC(C)(C)NC(=O)c3ccccc3)CC2(C)C)ccc1Cl (stereo not drawn) [Example 78],991
8,CC(C)(CC(=O)N1CCC(O)(c2ncc(Cl)cc2Cl)C(C)(C)C1)NC(=O)c1ccccc1 (stereo not drawn) [Example 83],788
9,CC(C)[C@@H](CNC(=O)Cc1ccccc1)C(=O)N1CC[C@](O)(c2ccc(Cl)cc2)C(C)(C)C1 [Example 89],809

# Other lines, results leading:
row,IC50 [nM],SMILES
1,41.6,CC1(C)CN(C(=O)CCNC(=O)c2ccccc2)CC[C@]1(O)c1ccc(Cl)cc1 [Example 27]
2,1.7,CC(C)(CC(=O)N1CC[C@](O)(c2ccc(Cl)cc2)C(C)(C)C1)NC(=O)C1CCCC1 [Example 35]
3,1.5,Cc1cc(C)c(C(=O)NC(C)(C)CC(=O)N2CC[C@](O)(c3ccc(Cl)cc3)C(C)(C)C2)cn1 [Example 40]
4,1.8,CC(C)(CC(=O)N1CC[C@](O)(c2ccc(Cl)cc2)C(C)(C)C1)NC(=O)c1cccc(C(N)=O)c1 [Example 42]
5,2.2,CC(C)(CC(=O)N1CC[C@](O)(c2ccc(Cl)cc2)C(C)(C)C1)NC(=O)c1cccc(-n2cnnn2)c1 [Example 50]
6,1.9,"C[C@H](NC(=O)NC(C)(C)CC(=O)N1CC[C@](O)(c2ccc(Cl)cc2)C(C)(C)C1)C(C)(C)O [Example 63, 1-(4-((S)-4-(4-Chlorophenyl)-4-hydroxy-3,3-dimethylpiperidin-1-yl)-2-methyl-4-oxobutan-2-yl)-3-((S)-3-hydroxy-3-methylbutan-2-yl)urea]"
